In patent US10294202B2, “Pyrrolidinones as herbicides” (FMC Corporation, priority 2013, dated 2019):

Assays:
wheat = experiment: Test A pre-/postemergence herbicide test; assay type: in vivo, Triticum aestivum; conditions: for Wheat plant response rating: Preemergence
In short: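 Planted in loam–sand blend; treated the same day preemergence by directed soil spray, while separately grown plants at one- to two-leaf stage got postemergence spray. Compared visually with untreated controls after approximately 10 days; 100 means complete control.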

oilseed rape = experiment: Test C pre-/postemergence herbicide test; assay type: in vivo, Brassica napus
Excerpt: (§1) Seeds of plant species selected from blackgrass (Alopecurus myosuroides), ryegrass, Italian (Italian ryegrass, Lolium multiflorum), wheat (winter wheat, Triticum aestivum), galium (catchweed bedstraw, Galium aparine), corn (Zea mays), crabgrass, large (large crabgrass, Digitaria sanguinalis), foxtail, giant (giant foxtail, Setaria faberii), johnsongrass (Sorghum halepense), lambsquarters (Chenopodium album), morningglory (Ipomoea coccinea), nutsedge, yellow (yellow nutsedge, Cyperus esculentus), pigweed (Amaranthus retroflexus), ragweed (common ragweed, Ambrosia elatior), soybean (Glycine max), barnyardgrass (Echinochloa crus-galli), oilseed rape (Brassica napus), waterhemp (common waterhemp, Amaranthus rudis), kochia (Kochia scoparia), oat, wild (wild oat, Avena fatua), surinam grass (Brachiaria decumbens), foxtail, green (green foxtail, Setaria viridis), goosegrass (Eleusine indica), bromegrass, downy (downy bromegrass, Bromus tectorum), nightshade (eastern black nightshade, Solanum ptycanthum), cocklebur (common cocklebur, Xanthium strumarium), cupgrass, woolly (woolly cupgrass, Eriochloa villosa), bermudagrass (Cynodon dactylon), sunflower, (common oilseed sunflower, Helianthus annuus), Russian thistle (Salsola kali) and velvetleaf (Abutilon theophrasti) were planted into a blend of loam soil and sand and treated preemergence with test chemicals formulated in a non-phytotoxic solvent mixture which included a surfactant. At the same time, plants selected from these crop and weed species and also barley (winter barley, Hordeum vulgare), […]), chickweed (common chickweed, Stellaria media), deadnettle (henbit deadnettle, Lamium amplexicaule), and canarygrass (littleseed canarygrass, Phalaris minor) were planted in pots containing Redi-Earth® planting medium (Scotts Company, 14111 Scottslawn Road, Marysville, Ohio 43041) comprising spaghnum peat moss, vermiculite, wetting agent and starter nutrients and treated with postemergence applications of test chemicals formulated in the same manner. Plants ranged in height from 2 to 18 cm (1- to 4-leaf stage) for postemergence treatments. Treated plants and controls were maintained in a greenhouse for 13 to 15 days, after which time all species were compared to controls and visually evaluated. Plant response ratings, summarized in Table C, are based on a scale of 0 to 100 where 0 is no effect and 100 is complete control. A dash (-) response means no test result.

ryegrass, Italian = experiment: Test C pre-/postemergence herbicide test; assay type: in vivo, Lolium multiflorum
Excerpt: as §1

soybean = experiment: Test C pre-/postemergence herbicide test; assay type: in vivo, Glycine max
Excerpt: as §1

nutsedge, yellow = experiment: Test C pre-/postemergence herbicide test; assay type: in vivo, Cyperus esculentus
Excerpt: as §1

johnsongrass = experiment: Test C pre-/postemergence herbicide test; assay type: in vivo, Sorghum halepense
Excerpt: as §1

ragweed = experiment: Test C pre-/postemergence herbicide test; assay type: in vivo, Ambrosia elatior
Excerpt: as §1

corn = experiment: Test C pre-/postemergence herbicide test; assay type: in vivo, Zea mays
Excerpt: as §1

pigweed = experiment: Test C pre-/postemergence herbicide test; assay type: in vivo, Amaranthus retroflexus
Excerpt: as §1

[1] = Postemergence, 500 g ai/ha, 0 to 100 scale (0 no effect, 100 complete control)
[2] = 125 g ai/ha, visual rating on 0 to 100 scale (0 no effect, 100 complete control)
[3] = preemergence, 500 g ai/ha, 0 to 100 scale
[4] = Postemergence, 8 g ai/ha, scale 0 to 100 (0 no effect, 100 complete control)
[5] = Postemergence, 16 g ai/ha, scale 0 to 100 (0 no effect, 100 complete control)
[6] = Postemergence, 31 g ai/ha, scale 0 to 100 (0 no effect, 100 complete control)
[7] = Postemergence, 62 g ai/ha, scale 0 (no effect) to 100 (complete control)
[8] = Preemergence, 31 g ai/ha, scale 0 to 100, 0 is no effect and 100 is complete control
[9] = Preemergence, 62 g ai/ha, scale 0 to 100 (0 no effect, 100 complete control)
[10] = Preemergence, 8 g ai/ha, scale 0 to 100
[11] = Preemergence, 16 g ai/ha, scale 0 to 100
[12] = Postemergence, 125 g ai/ha, 0 to 100 scale, 0 no effect, 100 complete control
[13] = Preemergence, 125 g ai/ha, scale 0 to 100 (0 no effect, 100 complete control)
[14] = Preemergence, 62 g ai/ha, scale 0 to 100

O=C1NCC(c2cccc(C(F)(F)F)c2)C1C(=O)Nc1ccccc1F (racemic) [Compound 3]
Plant response rating, Wheat (wheat; [1]): 50 | Wheat plant response rating (wheat; [2]): 40 | Plant response rating, Wheat (wheat; [3]): 60

CN1CC(c2ccc(F)cc2)C(C(=O)Nc2cccc(F)c2F)C1=O (stereo not shown) [Compound 271]
Plant response rating, Oilseed Rape (oilseed rape; [4]): 0 | Plant response rating, Oilseed Rape (oilseed rape; [5]): 0 | Plant response rating, Oilseed Rape (oilseed rape; [6]): 0 | Plant response rating, Oilseed Rape (oilseed rape; [7]): 20 | Oilseed Rape plant response rating (oilseed rape; [8]): 0 | Oilseed Rape plant response rating (oilseed rape; [9]): 20 | Plant response rating, Oilseed Rape (oilseed rape; [10]): 0 | Plant response rating, Oilseed Rape (oilseed rape; [11]): 0 | Plant response rating, Ryegrass, Italian (ryegrass, Italian; [4]): 0 | Plant response rating, Ryegrass, Italian (ryegrass, Italian; [5]): 0 | Plant response rating, Ryegrass, Italian (ryegrass, Italian; [6]): 0 | Plant response rating, Ryegrass, Italian (ryegrass, Italian; [7]): 0 | Ryegrass, Italian plant response rating (ryegrass, Italian; [8]): 0 | Ryegrass, Italian plant response rating (ryegrass, Italian; [9]): 10 | Plant response rating, Ryegrass, Italian (ryegrass, Italian; [10]): 0 | Plant response rating, Ryegrass, Italian (ryegrass, Italian; [11]): 0 | Plant response rating, Soybean (soybean; [4]): 5 | Plant response rating, Soybean (soybean; [5]): 45 | Plant response rating, Soybean (soybean; [6]): 15 | Plant response rating, Soybean (soybean; [7]): 60 | Soybean plant response rating (soybean; [8]): 0 | Soybean plant response rating (soybean; [9]): 0 | Plant response rating, Soybean (soybean; [10]): 0 | Plant response rating, Soybean (soybean; [11]): 0 | Plant response rating, Nutsedge, Yellow (nutsedge, yellow; [4]): 0 | Plant response rating, Nutsedge, Yellow (nutsedge, yellow; [5]): 0 | Plant response rating, Nutsedge, Yellow (nutsedge, yellow; [6]): 0 | Plant response rating, Nutsedge, Yellow (nutsedge, yellow; [7]): 0 | Nutsedge, Yellow plant response rating (nutsedge, yellow; [8]): 0 | Nutsedge, Yellow plant response rating (nutsedge, yellow; [9]): 0 | Plant response rating, Nutsedge, Yellow (nutsedge, yellow; [10]): 0 | Plant response rating, Nutsedge, Yellow (nutsedge, yellow; [11]): 0 | Plant response rating, Johnsongrass (johnsongrass; [4]): 10 | Plant response rating, Johnsongrass (johnsongrass; [5]): 10 | Plant response rating, Johnsongrass (johnsongrass; [6]): 10 | Plant response rating, Johnsongrass (johnsongrass; [7]): 10 | Johnsongrass plant response rating (johnsongrass; [8]): 0 | Johnsongrass plant response rating (johnsongrass; [9]): 10 | Plant response rating, Johnsongrass (johnsongrass; [10]): 0 | Plant response rating, Johnsongrass (johnsongrass; [11]): 0 | Plant response rating, Ragweed (ragweed; [4]): 0 | Plant response rating, Ragweed (ragweed; [5]): 15 | Plant response rating, Ragweed (ragweed; [6]): 25 | Plant response rating, Ragweed (ragweed; [7]): 40 | Ragweed plant response rating (ragweed; [8]): 0 | Ragweed plant response rating (ragweed; [9]): 10 | Plant response rating, Ragweed (ragweed; [10]): 0 | Plant response rating, Ragweed (ragweed; [11]): 0 | Plant response rating, Wheat (wheat; Postemergence, 125 g ai/ha, visual rating on 0 to 100 scale (0 no effect, 100 complete control), approx. 10 days): 0 | Plant response rating, Wheat (wheat; [1]): 80 | Plant response rating, Corn (corn; [4]): 0 | Plant response rating, Corn (corn; [5]): 0 | Plant response rating, Corn (corn; [6]): 0 | Plant response rating, Corn (corn; [7]): 0 | Corn plant response rating (corn; [8]): 0 | Corn plant response rating (corn; [9]): 0 | Plant response rating, Corn (corn; [10]): 0 | Plant response rating, Corn (corn; [11]): 0 | Plant response rating, Pigweed (pigweed; [4]): 5 | Plant response rating, Pigweed (pigweed; [5]): 5 | Plant response rating, Pigweed (pigweed; [6]): 10 | Plant response rating, Pigweed (pigweed; [7]): 30 | Pigweed plant response rating (pigweed; [8]): 0 | Pigweed plant response rating (pigweed; [9]): 25 | Plant response rating, Pigweed (pigweed; [11]): 0

O=C1NCC(c2ccc(F)c(F)c2)C1C(=O)Nc1cccc(F)c1 (racemic) [Compound 12]
Plant response rating, Wheat (wheat; [12]): 0 | Plant response rating, Wheat (wheat; [1]): 20 | Wheat plant response rating (wheat; [2]): 0 | Plant response rating, Wheat (wheat; [3]): 20

O=C1NCC(c2cccc(C(F)F)c2)C1C(=O)Nc1cccc(F)c1F (racemic) [Compound 211]
Oilseed Rape plant response rating (oilseed rape; [8]): 0 | Oilseed Rape plant response rating (oilseed rape; [9]): 35 | Plant response rating, Oilseed Rape (oilseed rape; [13]): 90 | Plant response rating (scale of 0 to 100), Oilseed Rape (oilseed rape; Preemergence, 250 g ai/ha): 90 | Ryegrass, Italian plant response rating (ryegrass, Italian; [8]): 0 | Ryegrass, Italian plant response rating (ryegrass, Italian; [9]): 35 | Plant response rating, Ryegrass, Italian (ryegrass, Italian; [13]): 40 | Plant response rating (scale of 0 to 100), Ryegrass, Italian (ryegrass, Italian; Preemergence, 250 g ai/ha): 50 | Soybean plant response rating (soybean; [8]): 0 | Soybean plant response rating (soybean; [9]): 0 | Plant response rating, Soybean (soybean; [13]): 5 | Plant response rating (scale of 0 to 100), Soybean (soybean; Preemergence, 250 g ai/ha): 0 | Nutsedge, Yellow plant response rating (nutsedge, yellow; [8]): 0 | Nutsedge, Yellow plant response rating (nutsedge, yellow; [9]): 0 | Plant response rating, Nutsedge, Yellow (nutsedge, yellow; [13]): 0 | Plant response rating (scale of 0 to 100), Nutsedge, Yellow (nutsedge, yellow; Preemergence, 250 g ai/ha): 10 | Johnsongrass plant response rating (johnsongrass; [8]): 0 | Johnsongrass plant response rating (johnsongrass; [9]): 0 | Plant response rating, Johnsongrass (johnsongrass; [13]): 30 | Plant response rating (scale of 0 to 100), Johnsongrass (johnsongrass; Preemergence, 250 g ai/ha): 65 | Ragweed plant response rating (ragweed; [8]): 0 | Ragweed plant response rating (ragweed; [9]): 10 | Plant response rating, Ragweed (ragweed; [13]): 85 | Plant response rating (scale of 0 to 100), Ragweed (ragweed; Preemergence, 250 g ai/ha): 100 | Plant response rating, Wheat (wheat; Postemergence, 125 g ai/ha, 0 to 100 scale, 0 is no effect, 100 is complete control): 30 | Wheat plant response rating (0 to 100 scale, 0 is no effect, 100 is complete control) (wheat; Postemergence, 500 g ai/ha): 80 | Corn plant response rating (corn; [8]): 0 | Corn plant response rating (corn; [9]): 25 | Plant response rating, Corn (corn; [13]): 0 | Plant response rating (scale of 0 to 100), Corn (corn; Preemergence, 250 g ai/ha): 80 | Pigweed plant response rating (pigweed; [9]): 0 | Plant response rating, Pigweed (pigweed; [13]): 0 | Plant response rating (scale of 0 to 100), Pigweed (pigweed; Preemergence, 250 g ai/ha): 70

O=C1NCC(c2ccc(F)cc2)C1C(=O)Nc1ccccc1F (racemic) [Compound 16]
Plant response rating, Ryegrass, Italian (ryegrass, Italian; [14]): 0 | Plant response rating, Soybean (soybean; [14]): 0 | Plant response rating, Soybean (soybean; [13]): 0 | Plant response rating, Nutsedge, Yellow (nutsedge, yellow; [14]): 0 | Plant response rating, Nutsedge, Yellow (nutsedge, yellow; [13]): 0 | Plant response rating, Johnsongrass (johnsongrass; [14]): 0 | Plant response rating, Johnsongrass (johnsongrass; [13]): 0 | Plant response rating, Ragweed (ragweed; [14]): 0 | Plant response rating, Ragweed (ragweed; [13]): 0 | Plant response rating, Wheat (wheat; [12]): 20 | Plant response rating, Wheat (wheat; [1]): 50 | Wheat plant response rating (wheat; [2]): 0 | Plant response rating, Wheat (wheat; [3]): 0 | Corn plant response rating (corn; Preemergence, 31 g ai/ha, scale 0 to 100 (0 no effect, 100 complete control)): 0 | Plant response rating, Corn (corn; [14]): 0 | Plant response rating, Corn (corn; [13]): 5 | Plant response rating, Corn (corn; Preemergence, 250 g ai/ha, scale 0 to 100 (0 no effect, 100 complete control)): 10 | Plant response rating, Pigweed (pigweed; [14]): 0 | Plant response rating, Pigweed (pigweed; [13]): 0
